Measured values taken from patent US10517842B2, “Methods of modulating miRNA levels and compositions for use in the same” (Los Angeles Biomedical Research Institute at Harbor-UCLA …, priority 2017, dated 2019).

What was measured:
[1] = tested on: CDK2; assay: Immunoblotting, protein expression in LSMC; assay type: cell-based, human; details: Tranilast 200 μM, 48 h, Western blot, P<0.05
Method: (§1) Total protein isolated from LSMC treated with Tranilast (200 μM) at sub-confluence for 48 hrs and from tissues was subjected to immunoblotting as previously described (Chuang et al., “miR-29c induction contributes to downregulation of vascular extracellular matrix proteins by glucocorticoids,” American journal of physiology Cell physiology (2015) 309:C117-25). Specific antibodies generated against CCND1, COL3A1, TGF-β3 (Proteintech Group, Inc., Chicago, Ill.), CDK2, DNMT1 (Santa Cruz Biotechnology, Dallas, Tex.), COL1 (Fitzgerald Industries Intl., Acton, Mass.) and EZH2 (Cell Signaling Technology, Danvers, Mass.) were used to detect specific protein expression. The membranes were also stripped and probed with GAPDH antibody (Proteintech Group, Inc.) serving as loading control.

[2] = tested on: COL1; assay: Immunoblotting, protein expression in LSMC; assay type: cell-based, human; details: Tranilast 200 μM, 48 h, Western blot, P<0.05
Method: as §1

[3] = tested on: DNMT1; assay: Immunoblotting, protein expression in LSMC; assay type: cell-based, human; details: Tranilast 200 μM, 48 h, Western blot, P<0.05
Method: as §1

[4] = tested on: TGF-β3; assay: Immunoblotting, protein expression in LSMC; assay type: cell-based, human; details: Tranilast 200 μM, 48 h, Western blot, P<0.05
Method: as §1

[5] = tested on: EZH2; assay: Immunoblotting, protein expression in LSMC; assay type: cell-based, human; details: Tranilast 200 μM, 48 h, Western blot, P<0.05
Method: as §1

[6] = tested on: CCND1; assay: Immunoblotting, protein expression in LSMC; assay type: cell-based, human; details: Tranilast 200 μM, 48 h, Western blot, P<0.05
Method: as §1

[7] = tested on: COL3A1; assay: Immunoblotting, protein expression in LSMC; assay type: cell-based, human; details: Tranilast 200 μM, 48 h, Western blot, P<0.05
Method: as §1

[8] = tested on: NF-kB; assay: NF-kB luciferase reporter assay in LSMC; assay type: cell-based, human; details: Tranilast 200 μM, 48 hrs, vs DMSO set as 1
Method: The ratio of Firefly:Renilla was determined after treatment of Tranilast (200 μM) for 48 hrs and reported as relative luciferase activity as compared to DMSO which was independently set as 1. FIG. 13B: Graphical depiction of the NF-Kb (p65) binding elements in the miR-200c promoter. […] The results are presented as mean±SEM of at least three independent experiments using LSMC isolated from 3 patients.

[9] = tested on: leiomyoma xenografts; assay: Leiomyoma xenograft mouse model (LSMC under the kidney capsule); assay type: in vivo, CB-17 SCID/beige mice; details: Tranilast 50 mg/kg/day i.p. daily for 3 weeks, mice
Description: We injected primary leiomyoma cells under the kidney capsule of CB-17 SCID/beige mice using a 27 g needle as previously reported (Ishikawa et al., “Progesterone is essential for maintenance and growth of uterine leiomyoma,” Endocrinology (2010) 151: 2433-2442; Ono et al, “Paracrine activation of WNT/beta-catenin pathway in uterine leiomyoma stem cells promotes tumor growth,” Proceedings of the National Academy of Sciences of the United States of America (2013) 110: 17053-17058). After two weeks we excised the xenograft, fixed the tissue, embedded it in paraffin and obtained 5 μm sections for staining. […] This animal model is used to evaluate the efficacy of Tranilast on tumor initiation, progression, histology, and expression of miR-200c and miR-29c and their respective target genes.
Freshly isolated LSMC are injected under the kidney capsule of female ovariectomized CB-17 SCID/beige mice implanted with pellet containing estradiol (0.05 mg/90 d release) and progesterone (25 mg/60 d release) as previously reported (Ishikawa et al., “Progesterone is essential for maintenance and growth of uterine leiomyoma,” Endocrinology (2010) 151: 2433-2442; Ono et al, “Paracrine activation of WNT/beta-catenin pathway in uterine leiomyoma stem cells promotes tumor growth,” Proceedings of the National Academy of Sciences of the United States of America (2013) 110: 17053-17058). For injections of leiomyoma cells, freshly isolated cells from hysterectomy specimens are suspended in rat-tail collagen (type I) solution (BD Biosciences) at 1×10^6 cells/10 μl and grafted onto kidney capsule.
To determine the effects of Tranilast on tumor initiation, immediately after subcapsular injection of cells mice (10 per group) will be treated i.p. daily for 3 weeks with vehicle (1% DMSO) or Tranilast (50 mg/kg/day) (Kim et al., “Effects of tranilast and pentoxifylline in a mouse model of chronic asthma using house dust mite antigen,” The Journal of asthma: official journal of the Association for the Care of Asthma (2009) 46: 884-894) at which point the animals are sacrificed and tumors excised, weighed and measured and subjected for further analyses detailed below.
To determine tumor progression in an additional four groups (10/group), LMSC cells are injected under the kidney capsule and tumors are allowed to develop for five weeks. Mice are then injected i.p. daily for 3 more weeks with vehicle or Tranilast (50 mg/kg/day) (Kim et al., “Effects of tranilast and pentoxifylline in a mouse model of chronic asthma using house dust mite antigen,” The Journal of asthma: official journal of the Association for the Care of Asthma (2009) 46: 884-894) at which time the animals are sacrificed and tumors excised, weighed, measured and subjected for further analysis.
For tumor analysis, portions of tumors are allocated for RNA and protein extraction, and the remainder fixed in 4% neutral-buffered formalin and embedded in paraffin (FFPE) for histologic analysis. To assess the rate of collagen deposition, 5 μm cut paraffin sections are subjected to histologic analysis and stained with Masson's Trichrome and Sirius Red (Sigma-Aldrich), and images are analyzed by Image-Pro Plus software (Media Cybernetics) as described in detail in our prior publications (Khorram et al., “Nutrient restriction in utero induces remodeling of the vascular extracellular matrix in rat offspring,” Reproductive sciences (2007) 14: 73-80; Khorram et al., “In utero undernutrition in rats induces increased vascular smooth muscle content in the offspring, American journal of obstetrics and gynecology (2007) 196: 486.e481-488). For Immunohistochemistry, the sections are de-paraffinized in xylene, and heated in 0.01 M citrate buffer for 15 min in a microwave oven. Slides are then incubated in methanol containing 0.3% hydrogen peroxide. Slides are incubated with primary antibody or control serum, washed, and followed by application of secondary antibody. The chromogen used is diaminobenzidine (DAKO). […]

COc1ccc(C=CC(=O)Nc2ccccc2C(=O)O)cc1OC [Tranilast, 2-[[3-(3,4-dimethoxyphenyl)-1-oxo-2-propenyl]amino]benzoic acid]
CDK2 expression, protein level [1]: significantly inhibited
COL1 expression, protein level [2]: significantly inhibited
DNMT1 expression, protein level [3]: significantly inhibited
TGF-β3 expression, protein level [4]: significantly inhibited
EZH2 expression, protein level [5]: significantly inhibited
CCND1 expression, protein level [6]: significantly inhibited
COL3A1 expression, protein level [7]: significantly inhibited
NF-kB signaling (NF-kB luciferase reporter activity) [8]: Blockade
NF-kB signaling in xenograft [9]: inhibition
cell proliferation (Ki-67 and PCNA labeling index) [9]: reduce
leiomyoma size [9]: shrinkage
methytransferases (DNMT1) in xenograft [9]: inhibition
miR-29c expression in xenograft [9]: up-regulate
miR-200c expression in xenograft [9]: up-regulate
rate of collagen deposition (Sirius Red staining) [9]: reduce
